In brackets after ≈: the same amount, converted by molar mass.
How the values were obtained:
Blumeria graminis [1] = assay: Fungicidal activity against Blumeria graminis infected compound pre-treated wheat plants assessed as disease preventive activity at 500 ppm measured after 1 or 2 weeks; assay type: functional
Blumeria graminis [2] = assay: Fungicidal activity against Blumeria graminis infected compound pre-treated wheat plants assessed as disease preventive activity at 100 ppm measured after 1 or 2 weeks; assay type: functional
Blumeria graminis [3] = assay: Fungicidal activity against Blumeria graminis infected compound pre-treated wheat plants assessed as disease preventive activity at 3.1 ppm measured after 1 or 2 weeks; assay type: functional
Blumeria graminis [4] = assay: Fungicidal activity against Blumeria graminis infected compound pre-treated wheat plants assessed as disease preventive activity at 6.2 ppm measured after 1 or 2 weeks; assay type: functional
Blumeria graminis [5] = assay: Fungicidal activity against Blumeria graminis infected compound pre-treated wheat plants assessed as disease preventive activity at 1.5 ppm measured after 1 or 2 weeks; assay type: functional
Blumeria graminis [6] = assay: Fungicidal activity against Blumeria graminis infected compound pre-treated wheat plants assessed as disease preventive activity measured after 1 or 2 weeks; assay type: functional, organism-based
Podosphaera fuliginea [7] = assay: Fungicidal activity against Podosphaera fuliginea infected cucumber plants exposed to compound treatment 1 day post infection assessed as disease curative activity at 3.12 mg/L measured after 1 or 2 weeks; assay type: functional
Podosphaera fuliginea [8] = assay: Fungicidal activity against Podosphaera fuliginea infected compound pre-treated cucumber plants assessed as disease preventive activity at 0.78 mg/L measured after 1 or 2 weeks; assay type: functional
Podosphaera fuliginea [9] = assay: Fungicidal activity against Podosphaera fuliginea infected compound pre-treated cucumber plants assessed as disease preventive activity at 3.12 mg/L measured after 1 or 2 weeks; assay type: functional
Blumeria graminis [10] = assay: Fungicidal activity against Blumeria graminis infected compound pre-treated wheat plants assessed as disease preventive activity at 3.12 mg/L measured after 1 or 2 weeks; assay type: functional
Podosphaera fuliginea [11] = assay: Fungicidal activity against Podosphaera fuliginea infected compound pre-treated cucumber plants assessed as disease preventive activity at measured after 1 or 2 weeks; assay type: functional, organism-based
Podosphaera fuliginea [12] = assay: Fungicidal activity against Podosphaera fuliginea infected cucumber plants exposed to compound treatment 1 day post infection assessed as disease curative activity at 0.78 mg/L measured after 1 or 2 weeks; assay type: functional
Blumeria graminis [13] = assay: Fungicidal activity against Blumeria graminis infected compound pre-treated wheat plants assessed as disease preventive activity at 0.78 mg/L measured after 1 or 2 weeks; assay type: functional
Blumeria graminis [14] = assay: Fungicidal activity against Blumeria graminis infected wheat plants exposed to compound treatment 1 day post infection assessed as disease curative activity measured after 1 or 2 weeks; assay type: functional, organism-based
Blumeria graminis [15] = assay: Fungicidal activity against Blumeria graminis infected wheat plants exposed to compound treatment 1 day post infection assessed as disease curative activity at 1.56 mg/L measured after 1 or 2 weeks; assay type: functional
Blumeria graminis [16] = assay: Fungicidal activity against Blumeria graminis infected wheat plants exposed to compound treatment 1 day post infection assessed as disease curative activity at 0.78 mg/L measured after 1 or 2 weeks; assay type: functional
Blumeria graminis [17] = assay: Fungicidal activity against Blumeria graminis infected compound pre-treated wheat plants assessed as disease preventive activity at 1.56 mg/L measured after 1 or 2 weeks; assay type: functional
Blumeria graminis [18] = assay: Fungicidal activity against Blumeria graminis infected wheat plants exposed to compound treatment 1 day post infection assessed as disease curative activity at 3.12 mg/L measured after 1 or 2 weeks; assay type: functional
Podosphaera fuliginea [19] = assay: Fungicidal activity against Podosphaera fuliginea infected compound pre-treated cucumber plants assessed as disease preventive activity at 6.25 mg/L measured after 1 or 2 weeks; assay type: functional
Podosphaera fuliginea [20] = assay: Fungicidal activity against Podosphaera fuliginea infected cucumber plants exposed to compound treatment 1 day post infection assessed as disease curative activity measured after 1 or 2 weeks; assay type: functional, organism-based
Podosphaera fuliginea [21] = assay: Fungicidal activity against Podosphaera fuliginea infected compound pre-treated cucumber plants assessed as disease preventive activity at 1.56 mg/L measured after 1 or 2 weeks; assay type: functional
Podosphaera fuliginea [22] = assay: Fungicidal activity against Podosphaera fuliginea infected cucumber plants exposed to compound treatment 1 day post infection assessed as disease curative activity at 1.56 mg/L measured after 1 or 2 weeks; assay type: functional
Blumeria graminis [23] = assay: Fungicidal activity against Blumeria graminis infected wheat plants exposed to compound treatment 1 day post infection assessed as disease curative activity at 6.25 mg/L measured after 1 or 2 weeks; assay type: functional
Podosphaera fuliginea [24] = assay: Fungicidal activity against Podosphaera fuliginea infected cucumber plants exposed to compound treatment 1 day post infection assessed as disease curative activity at 6.25 mg/L measured after 1 or 2 weeks; assay type: functional
Blumeria graminis [25] = assay: Fungicidal activity against Blumeria graminis infected compound pre-treated wheat plants assessed as disease preventive activity at 6.25 mg/L measured after 1 or 2 weeks; assay type: functional

## CO/N=C(/C(=O)OC)c1ccccc1CO/N=C(\SC)c1cc(C(F)(F)F)cc(C(F)(F)F)c1
Blumeria graminis [1]
  Activity: 100%
Blumeria graminis [2]
  Activity: 80%

## CN/C(=N\OCc1ccccc1/C(=N\OC)C(=O)OC)c1cc(C(F)(F)F)cc(C(F)(F)F)c1
Blumeria graminis [3]
  Activity: 90%
Blumeria graminis [1]
  Activity: 100%
Blumeria graminis [2]
  Activity: 100%
Blumeria graminis [4]
  Activity: 93%
Blumeria graminis [5]
  Activity: 70%

## CO/N=C(\C(=O)OC)c1ccccc1CO/N=C(\C)c1cccc(C(F)(F)F)c1
Blumeria graminis [3]
  Activity: 98%
Blumeria graminis [1]
  Activity: 100%
Blumeria graminis [2]
  Activity: 100%
Blumeria graminis [4]
  Activity: 100%
Blumeria graminis [5]
  Activity: 75%

## CO/C=C(/C(=O)OC)c1ccccc1CO/N=C(\N)c1cc(C(F)(F)F)cc(C(F)(F)F)c1
Blumeria graminis [3]
  Activity: 75%
Blumeria graminis [1]
  Activity: 100%
Blumeria graminis [2]
  Activity: 95%
Blumeria graminis [4]
  Activity: 90%
Blumeria graminis [5]
  Activity: 40%

## CO/N=C(/C1=NOCCO1)c1ccccc1CO/N=C(\SC)c1cc(C(F)(F)F)cc(C(F)(F)F)c1
Blumeria graminis [3]
  Activity: 10%
Blumeria graminis [1]
  Activity: 100%
Blumeria graminis [2]
  Activity: 100%
Blumeria graminis [4]
  Activity: 20%

## CO/N=C(/C(=O)OC)c1ccccc1CO/N=C(\OC)c1cc(C(F)(F)F)cc(C(F)(F)F)c1
Blumeria graminis [3]
  Activity: 98%
Blumeria graminis [1]
  Activity: 100%
Blumeria graminis [2]
  Activity: 100%
Blumeria graminis [4]
  Activity: 100%
Blumeria graminis [5]
  Activity: 80%

## CNC(=O)/C(=N/OC)c1ccccc1CO/N=C(\SC)c1cc(C(F)(F)F)cc(C(F)(F)F)c1
Blumeria graminis [3]
  Activity: 25%
Blumeria graminis [1]
  Activity: 100%
Blumeria graminis [2]
  Activity: 100%
Blumeria graminis [4]
  Activity: 40%

## CO/C=C(/C(=O)OC)c1ccccc1Oc1cc(Oc2ccccc2C#N)ncn1 [AZOXYSTROBIN]
Blumeria graminis [6]
  EC50: 1.7 µg/mL (≈ 4.21 µM)
  EC90: 7 µg/mL (≈ 17.4 µM)
Podosphaera fuliginea [7]
  Activity: 90%
Blumeria graminis [3]
  Activity: 80%
Podosphaera fuliginea [8]
  Activity: 35%
Podosphaera fuliginea [9]
  Activity: 80%
Blumeria graminis [10]
  Activity: 65%
Podosphaera fuliginea [11]
  EC50: 1.2 µg/mL (≈ 2.97 µM)
  EC90: 4.5 µg/mL (≈ 11.2 µM)
Podosphaera fuliginea [12]
  Activity: 55%
Blumeria graminis [13]
  Activity: 20%
Blumeria graminis [14]
  EC50: 1.7 µg/mL (≈ 4.21 µM)
  EC90: 5.9 µg/mL (≈ 14.6 µM)
Blumeria graminis [15]
  Activity: 52%
Blumeria graminis [16]
  Activity: 15%
Blumeria graminis [17]
  Activity: 50%
Blumeria graminis [1]
  Activity: 100%
Blumeria graminis [18]
  Activity: 78%
Podosphaera fuliginea [19]
  Activity: 95%
Blumeria graminis [2]
  Activity: 100%
Podosphaera fuliginea [20]
  EC50: 0.8 µg/mL (≈ 1.98 µM)
  EC90: 2.1 µg/mL (≈ 5.21 µM)
Podosphaera fuliginea [21]
  Activity: 60%
Podosphaera fuliginea [22]
  Activity: 80%
Blumeria graminis [23]
  Activity: 89%
Blumeria graminis [4]
  Activity: 85%
Podosphaera fuliginea [24]
  Activity: 100%
Blumeria graminis [5]
  Activity: 62%
Blumeria graminis [25]
  Activity: 90%

## CCO/C(=N\OCc1ccccc1/C(=N\OC)C(=O)OC)c1cc(C(F)(F)F)cc(C(F)(F)F)c1
Blumeria graminis [3]
  Activity: 50%
Blumeria graminis [1]
  Activity: 100%
Blumeria graminis [2]
  Activity: 100%
Blumeria graminis [4]
  Activity: 80%
Blumeria graminis [5]
  Activity: 15%

## CCS/C(=N\OCc1ccccc1/C(=C\OC)C(=O)OC)c1cc(C(F)(F)F)cc(C(F)(F)F)c1
Blumeria graminis [1]
  Activity: 85%

## CNC(=O)/C(=N/OC)c1ccccc1CO/N=C(\OC)c1cc(C(F)(F)F)cc(C(F)(F)F)c1
Blumeria graminis [1]
  Activity: 90%

## CNC(=O)/C(=N/OC)c1ccccc1Oc1ccccc1 [METOMINOSTROBIN]
Blumeria graminis [3]
  Activity: 85%
Blumeria graminis [1]
  Activity: 100%
Blumeria graminis [2]
  Activity: 100%
Blumeria graminis [4]
  Activity: 95%
Blumeria graminis [5]
  Activity: 65%

Source: ChEMBL document CHEMBL3045272, “Synthesis and fungicidal activities of novel bis(trifluoromethyl)phenyl-based strobilurins” (J Agric Food Chem, 2008)
